Measurements: US8658661B2, “Oxadiazole inhibitors of leukotriene production” (Boehringer Ingelheim International GmbH, priority 2010, dated 2014)
pIC50: −log10 of the molar value.

Legend:
[1] = tested on: biomarkers for myocardial infarction risk; conditions: clinical trial; cited from earlier work
[2] = tested on: apoE/LDL-R double knockout mice; conditions: oral dosing, high-fat diet from 2 months of age to 6 months; cited from earlier work
ApoE−/−xCD4dnTβRII mice = conditions: via infusion, treated for four weeks; cited from earlier work
human glomerulonephritis = conditions: clinical trial; cited from earlier work
[3] = target: T1, recombinant human FLAP protein (Homo sapiens, UniProt P20292); assay: FLAP binding assay (SPA, displacement of [125I]L-691,831); conditions: membranes of sf9 cells expressing recombinant human FLAP; [125I]L-691,831 probe; read-out: FLAP binding IC50
T1 construct: made in house; host or cells: Sf9 insect cells (100,000×g membrane pellet used)
T1 sequence (P20292 1-161): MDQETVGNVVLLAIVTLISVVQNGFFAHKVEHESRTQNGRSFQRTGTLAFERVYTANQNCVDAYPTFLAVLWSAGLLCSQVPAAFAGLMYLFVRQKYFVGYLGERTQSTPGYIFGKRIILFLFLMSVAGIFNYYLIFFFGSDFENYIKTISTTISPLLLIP
Summary of the method: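 Membranes from sf9 cells expressing human FLAP in pH 7.5 Tris buffer (MgCl2, EDTA, PMSF). Non-specific binding defined with 10 μM cold L-691,831.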

[4] = tested on: synthesis of LTB4 in human whole blood; assay: Human whole blood assay (inhibition of LTB4 synthesis, calcimycin stimulated); format: cell-based; conditions: heparinized human whole blood, calcimycin 20 μM, plasma LTB4
Summary of the method: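 Steps: compound plus heparinized human whole blood, 15 min at 37° C; add calcimycin to 20 μM final; incubate another 30 min at 37° C; centrifuge at low speed and collect plasma; measure LTB4 with a homogeneous time-resolved fluorescence immunoassay.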

SMILES	pIC50 [3]	pIC50 [4]	further results
O=C(O)[C@@H](c1ccc(OCc2ccc3ccccc3n2)cc1)C1CCCC1 [DG-031]			effect on biomarkers for myocardial infarction risk [1]: dose-dependent suppression of several biomarkers
CC(C)c1ccc2c(c1)c(SC(C)(C)C)c(CC(C)(C)C(=O)O)n2Cc1ccc(Cl)cc1 [MK-886]			decrease in plaque coverage in the aorta [2]: 56%; decrease in plaque coverage in the aortic root [2]: 43%; decrease in plaque area in the aortic root (ApoE−/−xCD4dnTβRII mice): ~40%
CC(C)(C)Sc1c(CC(C)(C)C(=O)O)n(Cc2ccc(Cl)cc2)c2ccc(OCc3ccc4ccccc4n3)cc12 [MK-591]			effect on proteinuria in human glomerulonephritis (human glomerulonephritis): reduce proteinuria
CC(c1ccc(-c2cnc(N)nc2)cc1)(c1noc(-c2cnn(C3COC3)c2)n1)C1CCC1 (stereo not drawn) [Example 99, 5-[4-(1-cyclobutyl-1-{5-[1-(oxetan-3-yl)-1H-pyrazol-4-yl]-1,2,4-oxadiazol-3-yl}ethyl)phenyl]pyrimidin-2-amine]	8.41	6.70	
CN(C)C(=O)Cn1cc(-c2nc(C(C)(c3ccc(-c4cnc(N)nc4)cc3)C3CC3)no2)cn1 (stereo not drawn) [Example 59, 2-[4-(3-{1-[4-(2-aminopyrimidin-5-yl)phenyl]-1-cyclopropylethyl}-1,2,4-oxadiazol-5-yl)-1H-pyrazol-1-yl]-N,N-dimethylacetamide]	8.96	7.12	
CC(C)C(C)(c1ccc(-c2cnc(N)nc2)cc1)c1noc(C2CCCCN2C(=O)OC(C)(C)C)n1 (stereo not drawn) [Example 112, tert-butyl 2-(3-{2-[4-(2-aminopyrimidin-5-yl)phenyl]-3-methylbutan-2-yl}-1,2,4-oxadiazol-5-yl)piperidine-1-carboxylate]	6.72	< 5.30	
CC(C)C(C)(c1ccc(-c2cnc(N)nc2)cc1)c1noc(N2CCNC(=O)C2)n1 (stereo not drawn) [Example 199, 4-(3-{1-[4-(2-Amino-pyrimidin-5-yl)-phenyl]-1,2-dimethyl-propyl}-[1,2,4]oxadiazol-5-yl)-piperazin-2-one]	7.49	6.16	
COCCn1cc(-c2nc([C@@](C)(c3ccc(-c4cnc(N)c(C)n4)cc3)C3CC3)no2)cn1 [Example 189, 5-[4-((R)-1-Cyclopropyl-1-{5-[1-(2-methoxy-ethyl)-1H-pyrazol-4-yl]-[1,2,4]oxadiazol-3-yl}-ethyl)-phenyl]-3-methyl-pyrazin-2-ylamine]	7.89	7.31	
CNC(=O)Cn1cc(-c2nc(C(C)(c3ccc(-c4cnc(N)nc4)cc3)C3CCC3)no2)cn1 (stereo not drawn) [Example 98, 2-[4-(3-{1-[4-(2-aminopyrimidin-5-yl)phenyl]-1-cyclobutylethyl}-1,2,4-oxadiazol-5-yl)-1H-pyrazol-1-yl]-N-methylacetamide]	7.92	6.24	
CC(C)C(C)(c1ccc(-c2cnc(N)nc2)cc1)c1noc(-c2ccc(C(F)(F)F)nc2)n1 (stereo not drawn) [Example 136, 5-[4-(3-methyl-2-{5-[6-(trifluoromethyl)pyridin-3-yl]-1,2,4-oxadiazol-3-yl}butan-2-yl)phenyl]pyrimidin-2-amine]	8.27	6.49	
CC(C)C(C)(c1ccc(-c2cnc(N)nc2)cc1)c1noc(NC2CCC(O)CC2)n1 (stereo not drawn) [Example 237, 4-(3-{1-[4-(2-Amino-pyrimidin-5-yl)-phenyl]-1,2-dimethyl-propyl}-[1,2,4]oxadiazol-5-ylamino)-cyclohexanol]	7.59	6.33	
COCCNc1ccc(-c2nc(C(C)(c3ccc(-c4cnc(N)nc4)cc3)C3CC3)no2)cn1 (stereo not drawn) [Example 38, 5-{4-[1-cyclopropyl-1-(5-{6-[(2-methoxyethyl)amino]pyridin-3-yl}-1,2,4-oxadiazol-3-yl)ethyl]phenyl}pyrimidin-2-amine]	8.66	7.01	
CNC1CCN(c2nc(C(C)(c3ccc(-c4cnc(N)nc4)cc3)C(C)C)no2)CC1 (stereo not drawn) [Example 217, 5-(4-{1,2-Dimethyl-1-[5-(4-methylamino-piperidin-1-yl)-[1,2,4]oxadiazol-3-yl]-propyl}-phenyl)-pyrimidin-2-ylamine]	7.05	5.92	
CC(C)C(C)(c1ccc(-c2cnc(N)nc2)cc1)c1noc(-c2cncnc2)n1 (stereo not drawn) [Example 129, 5-(4-{3-methyl-2-[5-(pyrimidin-5-yl)-1,2,4-oxadiazol-3-yl]butan-2-yl}phenyl)pyrimidin-2-amine]	8.70	6.74	
COc1ccc(-c2nc(C(C)(c3ccc(-c4cnc(N)nc4)cc3)C(C)C)no2)cn1 (stereo not drawn) [Example 8, 5-(4-{2-[5-(6-methoxypyridin-3-yl)-1,2,4-oxadiazol-3-yl]-3-methylbutan-2-yl}phenyl)pyrimidin-2-amine]	8.42	6.28	
CN(C)C(=O)Cn1cc(-c2nc(C(C)(c3ccc(-c4cnc(NC5CC5)nc4)cc3)C3CC3)no2)cn1 (stereo not drawn) [Example 250, 2-[4-(3-{1-Cyclopropyl-1-[4-(2-cyclopropylamino-pyrimidin-5-yl)-phenyl]-ethyl}[1,2,4]oxadiazol-5-yl)-pyrazol-1-yl]-N,N-dimethyl-acetamide]	6.33	< 5.30	
CC(C)(O)CNc1cnc(-c2nc(C(C)(C)c3ccc(-c4cnc(N)nc4)cc3)no2)cn1 [Example 73, 1-{[5-(3-{2-[4-(2-aminopyrimidin-5-yl)phenyl]propan-2-yl}-1,2,4-oxadiazol-5-yl)pyrazin-2-yl]amino}-2-methylpropan-2-ol]	7.55	6.00	
